Reference: patent US20230100838A1 (Revolution Medicines, Inc., priority 2019, published 2023)

What was measured:
[1] = target: T1, GDP-loaded K-Ras (1-169) G12D, C51S, C80L, C118S (Homo sapiens, UniProt P01116, C118S/C51S/C80L/G12D); assay: K-Ras G12D(GDP) cross-linking assay (conjugate formation, TOF mass spectrometry); format: binding; conditions: Table 5; percent covalently modified K-Ras by MS; room temperature; typical compound conc. 2, 10, 25 μM, endpoints 1 and 24 h
T1 construct: GDP-loaded K-Ras (1-169) G12D, C51S, C80L, C118S
Experimental: (§1) Protocol: K-Ras G12D(GDP) Cross-Linking Assay
(§2) Note: while the following protocol outlines the procedure for K-Ras G12D(GDP), a person of skill in the art may substitute other Ras proteins, and may also substitute a non-hydrolyzable GTP analog for GDP to study GTP bound Ras protein.
(§3) GDP-loaded K-Ras (1-169) G12D, C51S, C80L, C118S and GDP-loaded K-Ras (1-169) C51S, C80L, C118S were adjusted to 50 μM in K-Ras assay buffer (12.5 mM HEPES, 75 mM NaCl and 1 mM MgCl2 at pH 7.4). A 5 μL aliquot of each protein solution was added to each well of a 96-well microplate containing 40 μL of assay buffer. Initial compound stocks were prepared in DMSO at 100 times their final assay concentration. Compounds were then diluted 10-fold into K-Ras assay buffer to 10 times their final concentration. A 5 μL aliquot of each diluted compound solution was added to each protein solution in the 96-well microplate to initiate the reaction, which then proceeded at room temperature. Typical final compound concentrations were 2, 10, and 25 μM. At each time point, the reactions were analyzed immediately or quenched with 5 μL of a 5% formic acid solution and kept at 4° C. until analysis. Typical assay endpoints were 1 and 24 h.
(§4) Data collection took place on an Agilent 6230 TOF Mass Spectrometer. Complete reactions were injected onto a C4 reverse-phase column to separate protein from buffer components prior to entering the mass spectrometer. The proteins were eluted from the column by increasing acetonitrile fraction in the mobile phase and fed directly into the mass analyzer. Initial analysis of raw data took place in Agilent MassHunter BioConfirm software and consisted of deconvolution of multiple protein charge states with the maximum entropy algorithm, with a mass step of 1 Da. The heights of all deconvoluted protein masses were exported for further data analysis. The percent modification of each protein was then determined by calculating the peak height of the covalently modified K-Ras species as a percentage of the sum total of K-Ras protein peak height.

[2] = target: T2, GDP-loaded K-Ras (1-169) C51S, C80L, C118S (Homo sapiens, UniProt P01116, C118S/C51S/C80L); assay: K-Ras WT (GDP) cross-linking assay (conjugate formation, TOF mass spectrometry); format: binding; parameters: key: 0: No observed x-linking; +: 0 < x ≤ 20; ++: 20 < x ≤ 40; +++: 40 < x ≤ 100; conditions: Table 5; percent covalently modified K-Ras by MS; room temperature; typical compound conc. 2, 10, 25 μM, endpoints 1 and 24 h
T2 construct: GDP-loaded K-Ras (1-169) C51S, C80L, C118S
Experimental: as §1, §2, §3, §4

G12D x-linking (%) [1] | WT x-linking (%) [2] | Compound
++ (20 < x ≤ 40) | + (0 < x ≤ 20) | CO[C@@H]1CCC[C@@H]1N=C=NC1CCN(c2nc(OC[C@@H]3CCCN3C)nc3c2CCN(c2cccc4cccc(C)c24)C3)CC1 (single isomer, unassigned) [Example 149]
+ (0 < x ≤ 20) | + (0 < x ≤ 20) | CO[C@H]1CCC[C@H]1N=C=NC1CCN(c2nc(OC[C@@H]3CCCN3C)nc3c2CCN(c2cccc4cccc(C)c24)C3)CC1 (single isomer, unassigned) [Example 150]
+++ (40 < x ≤ 100) | ++ (20 < x ≤ 100) | COCCN=C=N[C@H]1CCN(c2nc(OC[C@@H]3CCCN3C)nc3c2CCN(c2cccc4cccc(C)c24)C3)C[C@@H]1CC#N [Example 76, 2-((3S,4S)-4-((((2-methoxyethyl)imino)methylene)amino)-1-(7-(8-methylnaphthalen-1-yl)-2-(((S)-1-methylpyrrolidin-2-yl)methoxy)-5,6,7,8-tetrahydropyrido[3,4-d]pyrimidin-4-yl)piperidin-3-yl)acetonitrile]
+ (0 < x ≤ 20) | 0 | CC(=O)N1C[C@@H]1C(=O)N1CCN(c2nc(OC[C@@H]3CCCN3C)nc3c2CCN(c2cccc4cccc(C)c24)C3)C[C@@H]1CC#N [Example 98, 2-((S)-1-((R)-1-acetylaziridine-2-carbonyl)-4-(7-(8-methylnaphthalen-1-yl)-2-(((S)-1-methylpyrrolidin-2-yl)methoxy)-5,6,7,8-tetrahydropyrido[3,4-d]pyrimidin-4-yl)piperazin-2-yl)acetonitrile]
+ (0 < x ≤ 20) | + (0 < x ≤ 20) | CC(=O)N1C[C@H]1C(=O)N1CCN(c2nc(OC[C@@H]3CCCN3C)nc3c2CCN(c2cccc4cccc(C)c24)C3)C[C@@H]1CC#N [Example 99, 2-((S)-1-((S)-1-acetylaziridine-2-carbonyl)-4-(7-(8-methylnaphthaien-1-yl)-2-(((S)-1-methylpyrrolidin-2-yl)methoxy)-5,6,7,8-tetrahydropyrido[3,4-d]pyrimidin-4-yl)piperazin-2-yl)acetonitrile]
+ (0 < x ≤ 20) | + (0 < x ≤ 20) | COc1ccccc1CN=C=N[C@@H]1CCN(c2nc(OC[C@@H]3CCCN3C)nc3c2CCN(c2cccc4cccc(C)c24)C3)C[C@@H]1CC#N [Example 102, 2-((3S,4R)-4-((((2-methoxybenzyl)imino)methylene)amino)-1-(7-(8-methylnaphthalen-1-yl)-2-(((S)-1-methylpyrrolidin-2-yl)methoxy)-5,6,7,8-tetrahydropyrido[3,4-d]pyrimidin-4-yl)piperidin-3-yl)acetonitrile]
+ (0 < x ≤ 20) | + (0 < x ≤ 20) | COc1ccccc1CN=C=N[C@H]1CCN(c2nc(OC[C@@H]3CCCN3C)nc3c2CCN(c2cccc4cccc(C)c24)C3)C[C@@H]1CC#N [Example 103, 2-((3S,4S)-4-((((2-methoxybenzyl)imino)methylene)amino)-1-(7-(8-methylnaphthalen-1-yl)-2-(((S)-1-methylpyrrolidin-2-yl)methoxy)-5,6,7,8-tetrahydropyrido[3,4-d]pyrimidin-4-yl)piperidin-3-yl)acetonitrile]
+ (0 < x ≤ 20) | + (0 < x ≤ 20) | COc1ccccc1CN=C=N[C@H]1C[C@H](Nc2nc(OC[C@@H]3CCCN3C)nc3c2CCN(c2cccc4cccc(C)c24)C3)C1 [Example 104, N-((1R,3S)-3-((((2-methoxybenzyl)imino)methylene)amino)cyclobutyl)-7-(8-methylnaphthalen-1-yl)-2-(((S)-1-methylpyrrolidin-2-yl)methoxy)-5,6,7,8-tetrahydropyrido[3,4-d]pyrimidin-4-amine]
+ (0 < x ≤ 20) | + (0 < x ≤ 20) | COC(=O)[C@H]1CN1C(=O)N1CCN(c2nc(OC[C@@H]3CCCN3C)nc3c2CCN(c2cccc4cccc(C)c24)C3)C[C@@H]1CC#N [Example 108, methyl (R)-1-((S)-2-(cyanomethyl)-4-(7-(8-methylnaphthalen-1-yl)-2-(((S)-1-methylpyrrolidin-2-yl)methoxy)-5,6,7,8-tetrahydropyrido[3,4-d]pyrimidin-4-yl)piperazine-1-carbonyl)aziridine-2-carboxylate]

Compound | G12D x-linking (%) [1] | WT x-linking (%) [2]
Cc1cccc2cccc(N3CCc4c(nc(OC[C@@H]5CCCN5C)nc4N4CCN(C(=O)[C@H]5CN5Cc5ccccc5)[C@@H](CC#N)C4)C3)c12 (stereo partly drawn) [Example 96, 2-((S)-1-((R)-1-benzylaziridine-2-carbonyl)-4-(7-(8-methylnaphthalen-1-yl)-2-(((S)-1-methylpyrrolidin-2-yl)methoxy)-5,6,7,8-tetrahydropyrido[3,4-d]pyrimidin-4-yl)piperazin-2-yl)acetonitrile] | + (0 < x ≤ 20) | + (0 < x ≤ 20)
Cc1cccc2cccc(N3CCc4c(nc(OC[C@@H]5CCCN5C)nc4N4CCN(C(=O)[C@@H]5CN5Cc5ccccc5)[C@@H](CC#N)C4)C3)c12 (stereo partly drawn) [Example 97, 2-((S)-1-((S)-1-benzylaziridine-2-carbonyl)-4-(7-(8-methylnaphthalen-1-yl)-2-(((S)-1-methylpyrrolidin-2-yl)methoxy)-5,6,7,8-tetrahydropyrido[3,4-d]pyrimidin-4-yl)piperazin-2-yl)acetonitrile] | + (0 < x ≤ 20) | + (0 < x ≤ 20)
Cc1cccc2cccc(N3CCc4c(nc(OC[C@@H]5CCCN5C)nc4N4CCN(C[C@H]5CN5)[C@@H](CC#N)C4)C3)c12 [Example 100, 2-((S)-1-(((R)-aziridin-2-yl)methyl)-4-(7-(8-methylnaphthalen-1-yl)-2-(((S)-1-methylpyrrolidin-2-yl)methoxy)-5,6,7,8-tetrahydropyrido[3,4-d]pyrimidin-4-yl)piperazin-2-yl)acetonitrile] | + (0 < x ≤ 20) | + (0 < x ≤ 20)
Cc1cccc2cccc(N3CCc4c(nc(OC[C@@H]5CCCN5C)nc4N4CCN(C[C@@H]5CN5)[C@@H](CC#N)C4)C3)c12 [Example 101, 2-((S)-1-(((S)-aziridin-2-yl)methyl)-4-(7-(8-methylnaphthalen-1-yl)-2-(((S)-1-methylpyrrolidin-2-yl)methoxy)-5,6,7,8-tetrahydropyrido[3,4-d]pyrimidin-4-yl)piperazin-2-yl)acetonitrile] | + (0 < x ≤ 20) | + (0 < x ≤ 20)
COCCN1C[C@@H]1C(=O)N1CCN(c2nc(OC[C@@H]3CCCN3C)nc3c2CCN(c2cccc4cccc(C)c24)C3)C[C@@H]1CC#N (stereo partly drawn) [Example 105, 2-((S)-1-((R)-1-(2-methoxyethyl)aziridine-2-carbonyl)-4-(7-(8-methylnaphthalen-1-yl)-2-(((S)-1-methylpyrrolidin-2-yl)methoxy)-5,6,7,8-tetrahydropyrido[3,4-d]pyrimidin-4-yl)piperazin-2-yl)acetonitrile] | ++ (20 < x ≤ 40) | + (0 < x ≤ 20)
COCCN1C[C@H]1C(=O)N1CCN(c2nc(OC[C@@H]3CCCN3C)nc3c2CCN(c2cccc4cccc(C)c24)C3)C[C@@H]1CC#N (stereo partly drawn) [Example 106, 2-((S)-1-((S)-1-(2-methoxyethyl)aziridine-2-carbonyl)-4-(7-(8-methylnaphthalen-1-yl)-2-(((S)-1-methylpyrrolidin-2-yl)methoxy)-5,6,7,8-tetrahydropyrido[3,4-d]pyrimidin-4-yl)piperazin-2-yl)acetonitrile] | + (0 < x ≤ 20) | + (0 < x ≤ 20)
Cc1cccc2cccc(N3CCc4c(nc(OC[C@@H]5CCCN5C)nc4N4CCN(C(=O)[C@@H]5CN5C)[C@@H](CC#N)C4)C3)c12 (stereo partly drawn) [Example 107, 2-((S)-1-((S)-1-methylaziridine-2-carbonyl)-4-(7-(8-methylnaphthalen-1-yl)-2-(((S)-1-methylpyrrolidin-2-yl)methoxy)-5,6,7,8-tetrahydropyrido[3,4-d]pyrimidin-4-yl)piperazin-2-yl)acetonitrile] | + (0 < x ≤ 20) | 0
